These results are taken from patent US8802674B2, “Aminopyrimidine derivatives as LRRK2 modulators” (Genentech, Inc., priority 2011, dated 2014).

The assay deals with LRRK2 (Homo sapiens (Human), UniProt Q5S007, G2019S). Put plainly: In Vitro LRRK2 LabChip Assay. It counts as biochemical. The protocol: In Vitro LRRK2 LabChip Assay
This assay was used to determine a compound's potency in inhibiting activity of LRRK2 by determining, Kiapp, IC50, or percent inhibition values. In a polypropylene plate, LRRK2, fluorescently-labeled peptide substrate, ATP and test compound were incubated together. Using a LabChip 3000 (Caliper Life Sciences), after the reaction the substrate was separated by capillary electrophoresis into two populations: phosphorylated and unphosphorylated. The relative amounts of each were quantitated by fluorescence intensity. LRRK2 Ki was determined according to the equation: Y=V0*(1−((x+Ki*(1+S/Km)+Et)/(2*Et)−(((x+Ki*(1+S/Km)+Et)^2−(4*Et*x))^0.5)/(2*Et))). Ki values in Table 4 and elsewhere herein are shown in μM.
Assay conditions and materials used were as follows:
Compound Plate Preparation:
For serial dilutions, 34.6 μl DMSO was added to columns 3-24. For the assay controls, 37.5 μl DMSO was added to columns 1 and 2 of rows A and P. a,d and 50 μl 25 μM G-028831 (Staurosporine) was added to columns 1 and 2, row B. For the samples: to start at 100 μM, 37.5 μl DMSO was to columns 1 and 2, then 12.5 μl 10 mM compound; to start at 10 μM, 78 μl DMSO was added to columns 1 & 2, then 2 μl 10 mM compound; and to start at 1 μM, 25 μM compound (2 μl 10 mM cmpd+798 μl DMSO) was added to empty columns 1 and 2. A Precision instrument was used to perform 1:3.16 serial dilutions (“PLK_BM_serial_halflog”).
ATP was diluted to 282.1 μM in Complete Kinase Buffer (final concentration was 130 μM).
Total and Blank Preparation:
In Complete Reaction Buffer, substrate was diluted to 4 μM. Equal volumes of Complete Reaction Buffer and 4 μM substrate were combined to obtain the blank. Equal volumes of Complete Reaction Buffer and 4 μM substrate were combined and to the combined solution was added 2× final LRRK2 concentration.
To a 50 μl polypropylene plate, 5 μl/well buffer/substrate was added by hand to Blank wells. A Biomek FX was used to start the kinase reaction (“PLK SAR 23 ATP”). The following were added to the appropriate wells:
5 μl/well compound/ATP in Assay Plate;
5 μl/well kinase/substrate in Assay Plate;
The plate was incubated for 2 hours in the dark. Biomek FX was used to stop the kinase reaction (“PLK Stop”), and 10 μl/well Stop solution was added to the Assay Plate. Results were read on the LabChip 3000.
The LabChip 3000 was run using the job “LRRK2IC50” with the following job settings: […]

Sequence of LRRK2 (Q5S007 970-2527 G2019S limits assumed): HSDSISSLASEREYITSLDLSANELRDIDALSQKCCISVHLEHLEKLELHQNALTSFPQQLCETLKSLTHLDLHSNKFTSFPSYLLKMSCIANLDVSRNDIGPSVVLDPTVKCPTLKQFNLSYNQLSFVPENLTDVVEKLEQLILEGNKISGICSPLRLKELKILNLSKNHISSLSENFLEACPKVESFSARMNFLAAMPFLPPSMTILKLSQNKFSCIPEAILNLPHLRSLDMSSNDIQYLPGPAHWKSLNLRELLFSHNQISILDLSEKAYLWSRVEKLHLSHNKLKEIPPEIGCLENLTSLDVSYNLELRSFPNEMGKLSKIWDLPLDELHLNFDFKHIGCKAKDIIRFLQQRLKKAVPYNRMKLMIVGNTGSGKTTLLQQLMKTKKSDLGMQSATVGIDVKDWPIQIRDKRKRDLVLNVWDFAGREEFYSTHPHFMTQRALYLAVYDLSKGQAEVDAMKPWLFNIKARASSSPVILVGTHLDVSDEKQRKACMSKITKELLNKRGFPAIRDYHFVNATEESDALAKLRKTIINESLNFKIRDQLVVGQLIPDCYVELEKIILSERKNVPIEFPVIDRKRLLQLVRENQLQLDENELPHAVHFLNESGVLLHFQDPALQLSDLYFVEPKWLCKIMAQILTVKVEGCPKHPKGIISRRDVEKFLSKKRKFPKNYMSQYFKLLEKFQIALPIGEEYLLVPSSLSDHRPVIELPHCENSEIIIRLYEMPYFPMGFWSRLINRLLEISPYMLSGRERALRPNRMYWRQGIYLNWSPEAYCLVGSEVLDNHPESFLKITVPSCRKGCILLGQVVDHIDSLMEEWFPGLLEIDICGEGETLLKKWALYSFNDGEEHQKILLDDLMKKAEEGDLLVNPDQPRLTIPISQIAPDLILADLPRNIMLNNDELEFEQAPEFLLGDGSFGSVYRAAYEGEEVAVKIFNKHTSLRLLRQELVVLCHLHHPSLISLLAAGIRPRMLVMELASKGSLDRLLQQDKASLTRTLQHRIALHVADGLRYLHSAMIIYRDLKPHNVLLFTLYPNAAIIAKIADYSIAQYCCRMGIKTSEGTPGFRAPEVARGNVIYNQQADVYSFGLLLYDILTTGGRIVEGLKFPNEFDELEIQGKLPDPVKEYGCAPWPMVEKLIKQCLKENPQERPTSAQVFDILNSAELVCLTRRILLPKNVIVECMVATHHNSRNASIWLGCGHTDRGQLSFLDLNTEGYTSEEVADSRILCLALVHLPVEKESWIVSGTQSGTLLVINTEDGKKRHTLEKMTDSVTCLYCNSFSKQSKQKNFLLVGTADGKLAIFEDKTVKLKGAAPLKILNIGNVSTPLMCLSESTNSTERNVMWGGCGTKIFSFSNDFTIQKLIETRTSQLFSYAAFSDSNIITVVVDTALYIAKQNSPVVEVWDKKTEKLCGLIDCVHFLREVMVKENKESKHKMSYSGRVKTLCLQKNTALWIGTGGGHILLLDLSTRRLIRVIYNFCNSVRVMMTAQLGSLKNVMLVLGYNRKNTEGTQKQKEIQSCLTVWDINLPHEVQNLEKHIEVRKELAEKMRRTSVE

Usually Ki stands for the dissociation constant of the complex between target and ligand, obtained from inhibition or displacement. Compound `CNc1nc(Nc2cc(OC)c(C(=O)NC3CCN(C)CC3)cc2Cl)ncc1Cl` [Example 155, 5-Chloro-4-(5-chloro-4-methylamino-pyrimidin-2-ylamino)-2-methoxy-N-(1-methyl-piperidin-4-yl)-benzamide] showed a Ki (Table 4) of 4.5 nM.
Where the note is “Table 6”, `CNc1nc(Nc2ccc(C(=O)N3CCC(C#N)CC3)cc2OC)ncc1C(F)(F)F` [Example 278, 1-[3-Methoxy-4-(4-methylamino-5-trifluoromethyl-pyrimidin-2-ylamino)-benzoyl]-piperidine-4-carbonitrile] displayed a Ki of 1.7 nM.
`CNc1nc(Nc2ccc(C(=O)N3CCOCC3)cc2C2CC2)ncc1Cl` [Example 193, [4-(5-Chloro-4-methylamino-pyrimidin-2-ylamino)-3-cyclopropyl-phenyl]-morpholin-4-yl-methanone] came in with a Ki (Table 4) of 23.9 nM.
Consider `CNc1nc(Nc2ccc(C(=O)N3CCN(CC(F)(F)F)CC3)cc2OC)ncc1C(F)(F)F` [Example 279, [3-Methoxy-4-(4-methylamino-5-trifluoromethyl-pyrimidin-2-ylamino)-phenyl]-[4-(2,2,2-trifluoro-ethyl)-piperazin-1-yl]-methanone], for which, for the setting “Table 6”, the affinity, expressed as Ki, was 2 nM.
The compound `CNc1nc(Nc2ccc(C(=O)N3C4CCC3COC4)cc2OC)ncc1Cl` [Example 57, [4-(5-Chloro-4-methylamino-pyrimidin-2-ylamino)-3-methoxy-phenyl]-(3-oxa-8-aza-bicyclo[3.2.1]oct-8-yl)-methanone] returned a Ki (Table 4) of 2.5 nM.
The same measure, in the same setting: next, `COCCNc1nc(Nc2ccc(C(=O)N3CCOCC3)cc2OC(C)C)ncc1Br` [Example 186, {4-[5-Bromo-4-(2-methoxy-ethylamino)-pyrimidin-2-ylamino]-3-isopropoxy-phenyl}-morpholin-4-yl-methanone]: 13.5 nM.
The same measure, in the same setting: next, `COc1cc(C(=O)N2CCOCC2)ccc1Nc1ncc(Cl)c(OC)n1` [Example 61, [4-(5-Chloro-4-methoxy-pyrimidin-2-ylamino)-3-methoxy-phenyl]-morpholin-4-yl-methanone]: 10.4 nM.
Compound `COc1cc(Nc2ncc(Cl)c(OC)n2)c(Cl)cc1C(=O)N1CCOCC1` [Example 260, [5-Chloro-4-(5-chloro-4-methoxy-pyrimidin-2-ylamino)-2-methoxy-phenyl]-morpholin-4-yl-methanone] gave a Ki (Table 5) of 47 nM.
The compound `CNc1nc(Nc2cc(OC)c(C(=O)N3CCC(O)CC3)cc2Cl)ncc1Cl` [Example 161, [5-Chloro-4-(5-chloro-4-methylamino-pyrimidin-2-ylamino)-2-methoxy-phenyl]-(4-hydroxy-piperidin-1-yl)-methanone] displayed a Ki (Table 4) of 3.6 nM.
The same measure, in the same setting: next, `COc1cc(C(=O)N2CCOCC2)ccc1Nc1ncc(I)c(OC)n1` [Example 101, [4-(5-Iodo-4-methoxy-pyrimidin-2-ylamino)-3-methoxy-phenyl]-morpholin-4-yl-methanone]: 2.1 nM; `CNc1nc(Nc2ccc(C(=O)N3CCC(C(C)(C)O)CC3)cc2OC)ncc1Br` [Example 71, [4-(5-Bromo-4-methylamino-pyrimidin-2-ylamino)-3-methoxy-phenyl]-[4-(l-hydroxy-1-methyl-ethyl)-piperidin-1-yl]-methanone]: 2.4 nM.
Same read-out and setting: next, `CNc1nc(Nc2cc(OC)c(C(=O)N3CCNCC3)cc2Cl)ncc1C(F)(F)F` [Example 176, [5-Chloro-2-methoxy-4-(4-methylamino-5-trifluoromethyl-pyrimidin-2-ylamino)-phenyl]-piperazin-1-yl-methanone]: 4.1 nM.
For `CNc1nc(Nc2ccc(C(=O)N3CCOCC3)cc2OC2CCC2)ncc1C(F)(F)F` [Example 269, [3-Cyclobutoxy-4-(4-methylamino-5-trifluoromethyl-pyrimidin-2-ylamino)-phenyl]-morpholin-4-yl-methanone], the affinity (Table 6) corresponds to a Ki of 2.5 nM.
As for `CNc1nc(Nc2ccc(C(=O)N3CCOCC3)cc2Cl)ncc1Cl` [Example 115, [3-Chloro-4-(5-chloro-4-methylamino-pyrimidin-2-ylamino)-phenyl]-morpholin-4-yl-methanone], the affinity (Table 4) corresponds to a Ki of 6 nM.
Still for that read-out and setting: next, `CNc1nc(Nc2cc(OC)c(C(=O)N3C[C@@H](C)N[C@@H](C)C3)cc2Cl)ncc1Cl` [Example 172, [5-Chloro-4-(5-chloro-4-methylamino-pyrimidin-2-ylamino)-2-methoxy-phenyl]-((3R,5S)-dimethyl-piperazin-1-yl)-methanone]: 33.3 nM; `CNC(=O)c1cc(Cl)c(Nc2ncc(Cl)c(NC)n2)cc1OC` [Example 144, 5-Chloro-4-(5-chloro-4-methylamino-pyrimidin-2-ylamino)-2-methoxy-N-methyl-benzamide]: 11.3 nM; `CNc1nc(Nc2ccc(C(=O)N3CCOCC3)cc2OC(C)C)ncc1Cl` [Example 79, [4-(5-Chloro-4-methylamino-pyrimidin-2-ylamino)-3-isopropoxy-phenyl]-morpholin-4-yl-methanone]: 15.6 nM.
Same read-out and setting: next, `CNc1nc(Nc2ccc(C(=O)N3CCC3)cc2OC)ncc1Cl` [Example 16, Azetidin-1-yl-[4-(5-chloro-4-methylamino-pyrimidin-2-ylamino)-3-methoxy-phenyl]-methanone]: 5.2 nM.
The same measure, in the same setting: for `CNc1nc(Nc2ccc(C(=O)N3CCCCC3)cc2OC)ncc1C#N` [Example 204, 2-[2-Methoxy-4-(piperidine-1-carbonyl)-phenylamino]-4-methylamino-pyrimidine-5-carbonitrile] the value was 3.3 nM; for `CNc1nc(Nc2cc(OC)c(C(=O)N3CCOCC3)cc2F)ncc1C(F)(F)F` [Example 237, (5-fluoro-2-methoxy-4-(4-(methylamino)-5-(trifluoromethyl)pyrimidin-2-ylamino)phenyl) (morpholino)methanone], 4.8 nM.
Take `CCNc1nc(Nc2ccc(C(=O)N3CCOCC3)cc2OC(F)(F)F)ncc1C(F)(F)F` [Example 234, (4-(4-(ethylamino)-5-(trifluoromethyl)pyrimidin-2-ylamino)-3-(trifluoromethoxy)phenyl)(morpholino) methanone]: affinity (Table 4) was put at a Ki of 3.2 nM.
As for `COc1cc(C(=O)N2CCCC2)ccc1Nc1ncc(Cl)c(OC)n1` [Example 299, (4-(5-chloro-4-methoxypyrimidin-2-ylamino)-3-methoxyphenyl) (pyrrolidin-1-yl)methanone], the Ki (Table 6) is 6 nM.
In the case of `CNc1nc(Nc2ccc(C(=O)N3CCNCC3)cc2OC)ncc1Cl` [Example 47, [4-(5-Chloro-4-methylamino-pyrimidin-2-ylamino)-3-methoxy-phenyl]-piperazin-1-yl-methanone], affinity (Table 4) was put at a Ki of 2.8 nM.
The same measure, in the same setting: next, `CNc1nc(Nc2cc(OC)c(C(=O)N3CCC(F)(F)CC3)cc2Cl)ncc1Cl` [Example 146, [5-Chloro-4-(5-chloro-4-methylamino-pyrimidin-2-ylamino)-2-methoxy-phenyl]-(4,4-difluoro-piperidin-1-yl)-methanone]: 7.8 nM.
Take `CNc1nc(Nc2cc(OC)c(C(=O)N3CCOCC3)cc2Cl)ncc1Cl` [Example 295, (5-chloro-4-(5-chloro-4-(methyl-amino)pyrimidin-2-ylamino)-2-methoxy-phenyl)(morpholino) methanone]: affinity (Table 6) was put at a Ki of 6 nM.
As to `COc1cc(C(=O)N2CCOCC2)ccc1Nc1ncc(C(F)(F)F)c(OC)n1` [Example 263, [3-Methoxy-4-(4-methoxy-5-trifluoromethyl-pyrimidin-2-ylamino)-phenyl]-morpholin-4-yl-methanone], the affinity (Table 5) corresponds to a Ki of 20 nM.
Consider `CCNc1nc(Nc2cc(OC)c(C(=O)NC3CC3)cc2Cl)ncc1C(F)(F)F` [Example 148, 5-Chloro-N-cyclopropyl-4-(4-ethylamino-5-trifluoromethyl-pyrimidin-2-ylamino)-2-methoxy-benzamide], for which, under “Table 4”, the Ki was found to be 3.5 nM.
For the setting “Table 4”, `COc1cc(C(=O)N2CCOCC2)ccc1Nc1ncc(Cl)c(NCCS(C)(=O)=O)n1` [Example 219, {4-[5-Chloro-4-(2-methanesulfonyl-ethylamino)-pyrimidin-2-ylamino]-3-methoxy-phenyl}-morpholin-4-yl-methanone] gave a Ki of 26.4 nM.
In turn, `COc1nc(Nc2ccc(C(=O)N3CCOCC3)cc2Cl)ncc1Cl` [Example 261, [3-Chloro-4-(5-chloro-4-methoxy-pyrimidin-2-ylamino)-phenyl]-morpholin-4-yl-methanone] had a Ki (Table 5) of 47 nM.
Under “Table 4”, `COc1cc(C(=O)N2CC(N3CCOCC3)C2)ccc1Nc1ncc(Br)c(OC)n1` [Example 88, [4-(5-Bromo-4-methoxy-pyrimidin-2-ylamino)-3-methoxy-phenyl]-(3-morpholin-4-yl-azetidin-1-yl)-methanone] registered a Ki of 5 nM.
